The values that follow come from PMC8414367, “(E)-7-Ethylidene-lithocholic Acid (7-ELCA) Is a Potent Dual Farnesoid X Receptor (FXR) Antagonist and GPBAR1 Agonist Inhibiting FXR-Induced Gene Expression in Hepatocytes and Stimulating Glucagon-like Peptide-1 Secretion From Enteroendocrine Cells” (Frontiers in Pharmacology, 2021).

In one data set the target is thyroid receptor (TRα) (Homo sapiens, UniProt P10827). The experiment in a line: Nuclear receptor specificity luciferase reporter assay in HepG2 cells.
thyroid receptor (TRα), sequence (P10827 163-410 isoform P10827-2 limits assumed): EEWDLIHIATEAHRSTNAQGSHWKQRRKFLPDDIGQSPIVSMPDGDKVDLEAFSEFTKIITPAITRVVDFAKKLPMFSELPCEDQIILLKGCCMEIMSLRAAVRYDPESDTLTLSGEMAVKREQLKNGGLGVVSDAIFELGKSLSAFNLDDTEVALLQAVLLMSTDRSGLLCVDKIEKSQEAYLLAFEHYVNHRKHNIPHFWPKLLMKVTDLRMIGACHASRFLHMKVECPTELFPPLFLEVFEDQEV
A further data set deals with LXRα (Homo sapiens, UniProt Q13133). The data set is described as above.
LXRα, sequence (Q13133 209-447 limits assumed): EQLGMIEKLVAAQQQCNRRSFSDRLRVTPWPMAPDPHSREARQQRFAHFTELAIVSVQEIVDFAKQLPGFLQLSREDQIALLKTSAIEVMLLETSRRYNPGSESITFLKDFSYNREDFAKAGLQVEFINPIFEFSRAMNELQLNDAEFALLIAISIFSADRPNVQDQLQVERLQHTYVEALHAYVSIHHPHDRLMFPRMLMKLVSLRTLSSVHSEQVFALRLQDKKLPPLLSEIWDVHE
The next data set concerns the target T1, GPBAR1 Ser270Gly (Homo sapiens, UniProt Q8TDU6, S270G).
T1 construct: expressed in transfected cells; host or cells: HepG2
The experiment in a line: CRE-luc reporter assay with mutated GPBAR1 variant in HepG2 cells. The class given is cell-based. Background: A reporter such as luciferase makes a cellular process visible.

The test system of another data set is GLUTag cells. The experiment in a line: MTS viability assay. Type of data set: cell-based, murine. As to conditions: Mus musculus, 24 h, read-out: IC50, cell viability. As to the method:
In addition, we examined the potential effect of 7-ethylidene-lithocholic acid (7-ELCA) on viability in murine colonic GLUTag cells. IC50 for 7-ELCA in the cell line remains above 200 µM.
Figure S1. Cell viability in GluTag cells was determined using the Cell Titer 96 Aqueous One Solution Cell Proliferation Assay (Promega) after treatment with 7-ethylidene-lithocholic acid (7-ELCA) for 24 h. Vehicle (0.1% DMSO) and background (10% SDS; v/v, toxic control) controls of cell viability were set to be 100% and 0%, respectively. IC50 is greater than 200 µM.
(Tetrazolium dyes change colour on reduction, which living cells bring about.)

A further data set deals with LXRβ (Homo sapiens, UniProt P55055). The data set is described as follows: Nuclear receptor specificity luciferase reporter assay in HepG2 cells.
LXRβ, sequence (P55055 222-460 limits assumed): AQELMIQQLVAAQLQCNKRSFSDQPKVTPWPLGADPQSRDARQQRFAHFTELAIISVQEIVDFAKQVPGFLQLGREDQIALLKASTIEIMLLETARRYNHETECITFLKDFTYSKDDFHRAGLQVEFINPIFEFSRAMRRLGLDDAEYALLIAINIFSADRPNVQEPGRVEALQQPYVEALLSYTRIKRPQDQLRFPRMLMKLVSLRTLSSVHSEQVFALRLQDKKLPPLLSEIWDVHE
Data set [1] has as its target glucocorticoid receptor (GR) (Homo sapiens, UniProt P04150). The data set is described as above.
Experimental: (§1) For transient transfection, HepG2 cells were seeded at the density of 40,000 cells/cm^2. […] The next day, cells were challenged with tested ligands in indicated concentrations for 5 h. […] All the other transient transfection reporter gene assays were performed with Lipofectamine® 3000 (ThermoFisher Scientific). Briefly, cells were transfected with 150 ng/well luciferase reporter gene constructs (p(DR3)3-luc, SHP-luc, p3A4-luc, pTAT-(GRE)2-TK-luc, p2B6-luc, pGL4.35[luc2P⁄9XGAL4UAS⁄Hygro]), FXRE-luc together with 100 ng/well of the corresponding full-length fragment nuclear receptor expression vectors (pSG5-hVDR, pSG5-hFXR, pSG5-hRXRα, pSG5-hPXR, CAR3 variant) or the ligand binding domains of human, pCMX-GAL4-hFXR, pCMX-GA4L-LXRα, pCMX-GA4L-LXRα, pCMX-GA4L-TRα, pCMX-GA4L-PPARα, pCMX-GAL4-PPARγ, pCMX-GAL4-PPARδ) and 30 ng/well of pRL-TK Renilla luciferase vector 24 h prior to the treatment. […] The firefly luciferase activity was measured using the Dual Luciferase® Reporter Assay System (Promega) and normalized to Renilla luciferase activity. Experiments in an agonistic mode were performed with OCA, CDCA or tested compounds (all compounds at 10 μM). […] EC50 and IC50 were calculated using GraphPad PRISM ver. […]
(§2) Data were normalized to Renilla luciferase activity and are expressed as fold activation relative to control (nontreated, NT) cells. […]
The next data set concerns the target PPARβ/δ (Homo sapiens, UniProt Q03181). The description is as above.
The test system of data set [2] is GPBAR1 mRNA, NCI-H716 cells. The data set is described as follows: GPBAR1 mRNA expression in differentiated NCI-H716 cells. Type of data set: cell-based, human. The conditions noted are these: 10 µM, 2 h. As for the experimental part:
FIGURE 8 Effects of 7-alkylated derivatives of CDCA and 7-ELCA on the membrane receptor GPBAR1. […]. (B) CRE-luc activation depends on the presence of GPBAR1. (C) Effects of LCA and 7-ELCA (both at 10 µM) on intracellular generation of cAMP in differentiated NCI-H716 cells after 30 min treatment. The increase in cAMP level (ΔcAMP) is presented as the difference between cAMP concertation in the treated sample after subtraction of the cAMP in the nontreated control sample. (D) Concentration-response curves for activation of GPBAR1 by LCA and 7-ELCA. EC50 values were calculated using nonlinear fitting of concentration-response curves. […] (G) 7-ELCA (10 µM) increases GLP-1 secretion in siRNA control but not in siRNA Gpbar1 transfected GLUTag cells after 1 h treatment. GLP-1 was normalized to protein concentration and GPBAR1 mRNA expression to GAPDH mRNA. Data are presented as a fold to control nontreated (NT) samples. Forskolin (FSK, 10 µM) was used as a GPBAR1-independent activator of cAMP production.

For the next data set, the target named is PPARγ (Homo sapiens, UniProt P37231). The data set is described as follows: Nuclear receptor specificity luciferase reporter assay in HepG2 cells.
PPARγ, sequence (P37231 238-503 limits assumed): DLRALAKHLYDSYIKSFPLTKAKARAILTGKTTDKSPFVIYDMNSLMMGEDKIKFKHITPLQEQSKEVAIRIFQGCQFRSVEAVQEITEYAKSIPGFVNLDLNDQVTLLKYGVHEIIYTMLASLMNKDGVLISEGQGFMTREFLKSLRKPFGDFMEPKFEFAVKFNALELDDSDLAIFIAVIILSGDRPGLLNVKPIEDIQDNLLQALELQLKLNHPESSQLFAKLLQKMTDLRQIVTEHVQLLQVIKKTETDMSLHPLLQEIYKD
In a further data set the target is PPARα (Homo sapiens, UniProt Q07869). Described as above.
PPARα, sequence (Q07869 239-466 limits assumed): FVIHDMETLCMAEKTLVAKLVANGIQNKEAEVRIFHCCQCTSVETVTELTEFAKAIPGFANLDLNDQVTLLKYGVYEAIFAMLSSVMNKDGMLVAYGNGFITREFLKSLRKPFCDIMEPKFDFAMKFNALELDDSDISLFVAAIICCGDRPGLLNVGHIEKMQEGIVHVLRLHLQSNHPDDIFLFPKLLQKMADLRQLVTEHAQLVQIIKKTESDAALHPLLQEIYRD
In data set [3] the test system is NCI-H716 cells. The experiment in a line: GLP-1 secretion (ELISA) in differentiated NCI-H716 cells. Type of data set: cell-based, human. The conditions noted are these: 10 µM, 2 h, listed as 7-ELCA.
In data set [4] the target is pregnane X receptor (PXR) (Homo sapiens, UniProt O75469). The experiment in a line: Nuclear receptor specificity luciferase reporter assay in HepG2 cells.
pregnane X receptor (PXR), sequence (O75469 whole entry): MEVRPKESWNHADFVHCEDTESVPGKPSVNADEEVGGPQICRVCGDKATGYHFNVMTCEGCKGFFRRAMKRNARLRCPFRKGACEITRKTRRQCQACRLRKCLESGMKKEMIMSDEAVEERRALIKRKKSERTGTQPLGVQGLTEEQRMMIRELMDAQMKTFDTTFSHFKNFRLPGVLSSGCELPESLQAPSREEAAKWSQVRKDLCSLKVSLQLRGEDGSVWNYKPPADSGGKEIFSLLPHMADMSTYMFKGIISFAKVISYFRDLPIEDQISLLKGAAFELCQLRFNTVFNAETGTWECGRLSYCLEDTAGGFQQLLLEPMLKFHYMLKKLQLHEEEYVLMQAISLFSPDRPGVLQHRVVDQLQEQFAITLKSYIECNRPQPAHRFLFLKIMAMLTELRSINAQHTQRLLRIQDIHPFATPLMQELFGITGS
Experimental: as §1, §2
Data set [5] deals with constitutive androstane receptor (CAR) (Homo sapiens, UniProt Q14994, DEL233-236). The data set is described as above.
constitutive androstane receptor (CAR), sequence (Q14994 with tags, fused parts or gaps isoform Q14994-8 DEL233-236): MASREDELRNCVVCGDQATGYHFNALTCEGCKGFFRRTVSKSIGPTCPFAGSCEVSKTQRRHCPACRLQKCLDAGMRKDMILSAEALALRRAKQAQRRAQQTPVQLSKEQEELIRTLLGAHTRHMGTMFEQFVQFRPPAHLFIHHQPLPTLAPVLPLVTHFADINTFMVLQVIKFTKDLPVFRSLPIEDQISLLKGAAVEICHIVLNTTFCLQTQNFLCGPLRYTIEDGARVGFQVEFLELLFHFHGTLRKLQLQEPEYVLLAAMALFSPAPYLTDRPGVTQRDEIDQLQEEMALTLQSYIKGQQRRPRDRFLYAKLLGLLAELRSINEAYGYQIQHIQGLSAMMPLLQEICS
constitutive androstane receptor (CAR), sequence (P19793 whole entry partner): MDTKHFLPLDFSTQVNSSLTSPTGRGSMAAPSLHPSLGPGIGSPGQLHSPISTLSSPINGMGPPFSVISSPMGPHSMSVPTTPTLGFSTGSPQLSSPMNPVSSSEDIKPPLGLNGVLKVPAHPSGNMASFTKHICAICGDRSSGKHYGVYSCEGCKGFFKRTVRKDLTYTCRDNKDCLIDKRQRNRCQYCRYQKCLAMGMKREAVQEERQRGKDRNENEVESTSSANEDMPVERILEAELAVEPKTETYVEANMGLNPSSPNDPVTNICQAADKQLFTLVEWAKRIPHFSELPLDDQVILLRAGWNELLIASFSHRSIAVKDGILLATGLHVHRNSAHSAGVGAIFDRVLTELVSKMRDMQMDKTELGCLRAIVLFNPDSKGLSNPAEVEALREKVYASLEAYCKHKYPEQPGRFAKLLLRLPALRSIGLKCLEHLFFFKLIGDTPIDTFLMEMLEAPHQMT
Experimental: as §1, §2
The subject of data set [6] is NCI-H716 cells. The data set is described as follows: cAMP determination (cAMP-Glo) in differentiated NCI-H716 cells. As to conditions: 10 µM, 30 min, compared to 10 µM LCA. Type of data set: cell-based, human. As to the method: Differentiated NCI-H716 cells were serum-starved, washed in PBS, and the cell culture medium was changed to Hanks' Balanced Salt solution (HBSS) supplemented with 0.2% (w/v) BSA and 500 µM 3-isobutyl-1-methylxanthine and incubated for 45 min at 37°C. Cells were stimulated with tested compounds or forskolin for 30 min, and the amount of cAMP generated was measured using the cAMP-Glo™ Assay (V1501, Promega, […], United States). The changes in cAMP levels (ΔcAMP) are presented as cAMP levels in treated samples after subtraction of the cAMP levels in the nontreated (NT) samples.
FIGURE 8 Effects of 7-alkylated derivatives of CDCA and 7-ELCA on the membrane receptor GPBAR1. […] . (B) CRE-luc activation depends on the presence of GPBAR1. (C) Effects of LCA and 7-ELCA (both at 10 µM) on intracellular generation of cAMP in differentiated NCI-H716 cells after 30 min treatment. The increase in cAMP level (ΔcAMP) is presented as the difference between cAMP concertation in the treated sample after subtraction of the cAMP in the nontreated control sample. (D) Concentration-response curves for activation of GPBAR1 by LCA and 7-ELCA. EC50 values were calculated using nonlinear fitting of concentration-response curves. […] (G) 7-ELCA (10 µM) increases GLP-1 secretion in siRNA control but not in siRNA Gpbar1 transfected GLUTag cells after 1 h treatment. […]

By IC50 is commonly meant the point on the concentration scale where inhibition reaches its midpoint.

SMILES strings stand for the structures. “Also recorded” adds a separate entry of the source.

PPARβ/δ, sequence (Q03181 211-439 limits assumed): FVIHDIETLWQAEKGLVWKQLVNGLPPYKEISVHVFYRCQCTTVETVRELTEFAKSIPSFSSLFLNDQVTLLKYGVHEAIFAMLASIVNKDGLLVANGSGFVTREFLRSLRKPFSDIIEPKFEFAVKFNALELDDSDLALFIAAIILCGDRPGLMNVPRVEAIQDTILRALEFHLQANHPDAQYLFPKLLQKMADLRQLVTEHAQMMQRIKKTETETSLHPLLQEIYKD
glucocorticoid receptor (GR), sequence (P04150 whole entry): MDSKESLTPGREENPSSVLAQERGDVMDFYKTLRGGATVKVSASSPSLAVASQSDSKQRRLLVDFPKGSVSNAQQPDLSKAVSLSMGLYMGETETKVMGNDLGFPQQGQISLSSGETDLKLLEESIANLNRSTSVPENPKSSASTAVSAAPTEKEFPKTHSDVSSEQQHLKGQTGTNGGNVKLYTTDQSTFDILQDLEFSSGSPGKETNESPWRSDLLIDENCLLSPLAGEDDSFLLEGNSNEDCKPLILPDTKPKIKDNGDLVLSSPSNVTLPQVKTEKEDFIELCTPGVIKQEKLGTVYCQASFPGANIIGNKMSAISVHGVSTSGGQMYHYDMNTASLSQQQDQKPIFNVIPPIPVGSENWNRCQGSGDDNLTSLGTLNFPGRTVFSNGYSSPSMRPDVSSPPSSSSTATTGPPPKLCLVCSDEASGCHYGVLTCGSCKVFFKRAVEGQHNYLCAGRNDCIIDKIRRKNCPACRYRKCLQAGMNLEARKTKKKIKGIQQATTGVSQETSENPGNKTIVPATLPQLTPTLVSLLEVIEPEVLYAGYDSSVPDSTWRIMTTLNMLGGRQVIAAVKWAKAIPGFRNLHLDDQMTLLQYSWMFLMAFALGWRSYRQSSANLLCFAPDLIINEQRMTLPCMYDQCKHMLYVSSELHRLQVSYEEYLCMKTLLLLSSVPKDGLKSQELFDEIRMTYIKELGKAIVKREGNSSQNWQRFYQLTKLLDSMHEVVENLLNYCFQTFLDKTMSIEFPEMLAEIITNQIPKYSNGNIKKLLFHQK
T1 sequence (Q8TDU6 whole entry S270G): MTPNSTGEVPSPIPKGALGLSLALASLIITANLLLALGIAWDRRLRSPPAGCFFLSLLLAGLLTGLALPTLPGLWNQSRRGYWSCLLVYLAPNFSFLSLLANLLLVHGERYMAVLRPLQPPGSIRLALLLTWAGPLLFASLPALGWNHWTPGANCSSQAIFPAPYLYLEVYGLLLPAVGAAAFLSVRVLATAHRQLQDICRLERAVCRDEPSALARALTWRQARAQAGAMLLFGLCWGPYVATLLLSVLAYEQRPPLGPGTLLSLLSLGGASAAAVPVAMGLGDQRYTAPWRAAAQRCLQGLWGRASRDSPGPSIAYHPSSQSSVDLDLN
Experimental for LXRα: as §1, §2
Experimental for LXRβ: as §1, §2
Experimental for PPARα: as §1, §2
Experimental for PPARβ/δ: as §1, §2
Experimental for PPARγ: as §1, §2

Regarding `C/C=C1\C[C@@H]2C[C@H](O)CC[C@]2(C)[C@H]2CC[C@]3(C)[C@@H]([C@H](C)CCC(=O)O)CC[C@H]3[C@H]12` [2a, (E)-3α-Hydroxy-7-ethylidene-5β-cholan-24-oic acid], the “antagonism of TRα activation by model ligand” value on thyroid receptor (TRα) (10 µM, with thyroxin 1 µM) is “did not antagonize”. Moreover, the “activation of TRα” value at thyroid receptor (TRα) (agonistic assay, 24 h) is reported as “did not activate”. The “antagonism of LXRα activation by model ligand” value at LXRα (10 µM, with GW3965 1 µM) was “did not antagonize”. The “activation of LXRα” value at LXRα (agonistic assay, 24 h) is “did not activate”. Moreover, the “CRE-luc activation via GPBAR1 Ser270Gly” value on GPBAR1 Ser270Gly is reported as “partially preserved”. Moreover, the IC50 in the data set with GLUTag cells was above 200 µM. Besides, at LXRβ (10 µM, with GW3965 1 µM), the “antagonism of LXRβ activation by model ligand” value is “did not antagonize”. The “activation of LXRβ” value on LXRβ (agonistic assay, 24 h) was “did not activate”. In addition, the “antagonism of GR activation by model ligand” value in data set [1] (10 µM, with dexamethasone 50 nM) is “did not antagonize”. Besides, the “activation of GR” value in data set [1] (agonistic assay, 24 h) is on record as “did not activate”. In addition, the “antagonism of PPARβ/δ activation by model ligand” value on PPARβ/δ (10 µM, with GW501516 1 µM) is recorded as “did not antagonize”. The “activation of PPARβ/δ” value at PPARβ/δ (agonistic assay, 24 h) is “did not activate”. Moreover, the “GPBAR1 mRNA expression” value in [2] is “increase GPBAR1 mRNA expression”. For the same molecule, the “antagonism of PPARγ activation by model ligand” value at PPARγ (10 µM, with rosiglitazone 1 µM) is “did not antagonize”. In addition, at PPARγ (agonistic assay, 24 h), the “activation of PPARγ” value is recorded as “did not activate”. At PPARα (10 µM, with fenofibrate 1 µM), the “antagonism of PPARα activation by model ligand” value is on record as “did not antagonize”. Further, the “activation of PPARα” value at PPARα (agonistic assay, 24 h) was “did not activate”. The GLP-1 secretion result in the data set with NCI-H716 cells [3] is listed as “significant increase of GLP-1 secretion; also recorded: significantly stronger compared to LCA”. Further, in data set [4] (10 µM, with rifampicin 1 µM), the “antagonism of PXR activation by model ligand” value is “did not antagonize”. In addition, the “activation of PXR” value in [4] (agonistic assay, 24 h) is listed as “did not activate”. For the same molecule, in data set [5] (10 µM, with CITCO 1 µM), the “antagonism of CAR activation by model ligand” value was “did not antagonize”. The “activation of CAR” value in data set [5] (agonistic assay, 24 h) was “did not activate”. Also, the “intracellular generation of cAMP” value with NCI-H716 cells [6] was “more significant production of cAMP”.
